Assay results as given in patent US10668049B2, “Methods of treating cognitive decline with transforming growth factor beta inhibitors” (The Regents of the University of California, priority 2008, dated 2020).

Tests used:
Type in all cases: cell-based, rat
cortical slices = test: Extracellular potassium accumulation in cortical slices measured with ion-sensitive microelectrodes; settings: slices 24 h following treatment with albumin; frequencies ≥10 Hz
Method: (§1) Electrophysiological recordings were obtained 6-10 h following perfusion with sACSF. Control slices were treated similarly, using sACSF without albumin. For extracellular recordings, glass microelectrodes (˜3 MΩ, 154 mM NaCl) were positioned in layer 4 of the neocortex. Slices were stimulated with brief (100 μs) pulses, by using bipolar stimulation electrodes placed at the border between white and gray matter in the same conical column. Trains of 50 stimuli were applied at 2, 5, 10, 20, 50 and 100 Hz, at 2.5× threshold stimulation intensity. […] Extracellular potassium concentrations ([K+]o) were measured with ion-sensitive microelectrodes (ISMEs; Lux and Neher, 1973: Jauch et al., 2002).
To study K^+ clearance from the extracellular space, K clearance was recorded from control and treated slices (24 h following treatment with albumin) by using ISMEs. Slower decay kinetics of [K^+]o in response to pressure application in BBB-treated animals has been reported (Ivens et al., 2007). Here, [K]o accumulation during neuronal activation at different frequencies of stimulation was tested. In slices from control animals, the increase in [K^+]o was limited to 25% of baseline levels (<3.75 mM) at all stimulation frequencies with the employed stimulation intensities and number of stimuli.

astrocytic cultures = test: RT-PCR of astrocytic cultures exposed to albumin; settings: albumin for 24 h
Method: (§2) Primary neuronal cortical cultures were prepared from embryonic day 18 rats as reported previously (Kaufer et al., 2004). Briefly, cells were dissociated with a papain solution for 20 min at 37° C., After the removal of the papain solution, the tissue was resuspended in growth medium [MEM with Earle's salts containing 2.5% B27 supplement, 0.1% mito serum extender, 5% fetal bovine serum (FBS), 20 mM glucose, and 5 mM L-glutamine] and dissociated by mechanical trituration. The cells were plated, and after 4 h in vitro the cell culture medium was replaced with neurobasal medium supplemented with 2% B27 supplement and 0.5 mM GlutaMAX™. The cells were maintained in 5% CO2 at 37° C. After 7 days in vitro, cytosine arabinofuranoside (AraC) (10 μM) was added to the cultures. After 10 days in vitro, the cells were incubated with 0.4 mM albumin for 24 h at 37° C. For astrocytic cultures, astrocytcs were isolated from the cerebral cortices of PO rat pups. Cells were dissociated with papain and mechanical trituration. The cells were cultured in high-glucose Dulbecco's modified eagle medium supplemented with 10% FBS and 1% penicillin/streptomycin at 37° C. and in 5% C02 (medium was replaced every 3-4 days). After 10 days in vitro, the culture medium was replaced with serum-free high-glucose DMEM (containing 1% penicillin/streptomycin) for 18 h. The cells were then incubated in scrum-free medium containing 0.4 mM albumin for 24 h at 37° C. For immunostainings cells were washed with phosphate buffered saline (PBS) and fixed in 4% paraformaldehyde for 15 min. The cells were permeabilized with 0.2% Triton X-100 in PBS for 5 min and washed in PBS. They were then incubated with 5% normal donkey serum in PBS for one hour at room temperature followed by overnight incubation at 4° C. with either mouse anti-NeuN (1:1000: Chemicon, Temecula, Calif.) or mouse anti-GFAP (1:1000: Cell Signaling Technology, Beverly, Mass.). The cells were washed in PBS, incubated with donkey anti-mouse Cy3 (1:1000; Jackson ImmunoResearch. West Grove, Pa.) for 1 hour at room temperature, and then counterstained with DAPI.
Total RNA was isolated from the somatosensory cortices of animals treated with DOC or albumin (24 h treatment; n=3) or from primary cultures (astrocytic and neuronal, n=3 independent experiments). Expression levels were determined by real-time reverse transcriptase-PCR (RT-PCR) with an iQ5 detection system (Bio-Rad, Hercules, Calif.) using gene-specific primer pairs. RT-PCR data were analyzed using the PCR Miner program (Zhao and Fernald, 2005), and fold changes in gene expression were represented relative to sham-operated controls (in-vivo samples) or serum-deprived controls (in-vitro, samples). Ribosomal 18S RNA (18S rRNA) was used as an internal control for variations in sample preparation. For samples from in-vivo treatments, RT-PCR was performed with the iScript one-step RT-PCR kit (Bio-Rad). Control RT-PCR reactions were performed without reverse transcriptase to verify amplification of genomic DNA. For in-vitro samples, DNase treatment was applied, followed by first-strand cDNA synthesis (iScript cDNA Synthesis kit, Bio-Rad). PCR reactions were carried out with iQ SYBR Green Supermix (Bio-Rad). Primer specificity was verified by melt curve analysis. The amplification cycles for 18S, Gja1, GS, SLC1A2, SLC1A3 (GLAST) and Kenj10 consisted of 40 cycles of 10 s at 95° C., 30 s at 55° C., and 30 s at 72° C. […]

[1] = test system: neuronal-enriched culture; test: RT-PCR of neuronal-enriched cultures exposed to albumin; settings: albumin for 24 h
Method: as §2, with “For immunostainings cells were washed with phosphate buffered saline (PBS) and fixed in 4% paraformaldehyde for 15 min. The cells were permeabilized with 0.2% Triton X-100 in PBS for 5 min and washed in PBS. They were then incubated with 5% normal donkey serum in PBS for one hour at room temperature followed by overnight incubation at 4° C. with either mouse anti-NeuN (1:1000: Chemicon, Temecula, Calif.) or mouse anti-GFAP (1:1000: Cell Signaling Technology, Beverly, Mass.). The cells were washed in PBS, incubated with donkey anti-mouse Cy3 (1:1000; Jackson ImmunoResearch. West Grove, Pa.) for 1 hour at room temperature, and then counterstained with DAPI.” left out
Total RNA was isolated from the somatosensory cortices of animals treated with DOC or albumin (24 h treatment; n=3) or from primary cultures (astrocytic and neuronal, n=3 independent experiments). Expression levels were determined by real-time reverse transcriptase-PCR (RT-PCR) with an iQ5 detection system (Bio-Rad, Hercules, Calif.) using gene-specific primer pairs. RT-PCR data were analyzed using the PCR Miner program (Zhao and Fernald, 2005), and fold changes in gene expression were represented relative to sham-operated controls (in-vivo samples) or serum-deprived controls (in-vitro, samples). […]

brain slices = test: Field potentials during train stimulation in brain slices exposed to albumin in sACSF; settings: for field potential duration (at ⅓ maximal amplitude), 1st stimulus / field potential duration (at ⅓ maximal amplitude), 5th stimulus: treated
Method: For electrophysiological experiments, rats were deeply anesthetized with isoflurane and then decapitated. Brains were quickly removed, and transverse hippocampal-cortical slices ([…] thick) were prepared using a vibratome (Campden Instruments, Loughborough, UK). Slices were maintained in a humidified, carbogenated (5% CO2 and 95% O2) gas atmosphere at 36±1° C. and perfused with ACSF in a standard interface chamber (Seiffert et al., 2004; Ivens et al., 2007). To mimic the altered ionic environment during BBB disruption, recordings were acquired in a serum-adapted electrolyte solution (sACSF; see Seiffert et al. 2004). sACSF was similar in composition to the ACSF except for different concentrations of MgSO4 (0.8 mM), CaCl2 (1.3 mM), KCl (5.7 mM) and glutamine (1 mM). “Treated” slices were incubated with sACSF containing 0.1 mM bovine serum albumin for 2 h before transfer to the perfusion chamber.
as §1
The simulation data presented above predicted maximal EPSP facilitation at 20 Hz when [K^+]o clearance is reduced and decreased facilitation (at 50-100 Hz) when the only change induced is glutamate accumulation in the synaptic cleft. Field potentials in response to stimulation at various frequencies in brain slices during “epileptogenesis” (exposure to albumin in sACSF) compared to controls (sACSF alone) were therefore measured.

[2] = 100 Hz stimulation, treated (n=4)

Substance: albumin: bovine serum albumin, used to induce epileptogenesis
- [K+]o accumulation during neuronal activation, level reached (cortical slices): 6.7 mM
- GS transcript expression (astrocytic cultures): significant down-regulation
- Gja1 transcript expression (astrocytic cultures): significant down-regulation
- Gjb2 transcript expression (astrocytic cultures): significant down-regulation
- Gjb6 transcript expression (astrocytic cultures): significant down-regulation
- S1C1A3 transcript expression (astrocytic cultures): significant down-regulation
- GS mRNA levels [1]: downregulation
- Gjb6 mRNA levels [1]: upregulation
- expression levels of the same transcripts (except GS and Gjb6) [1]: No significant differences
- stimulation-induced long-lasting epileptiform discharges, slices showing them (brain slices; 5 Hz stimulation): 2 of 4
- stimulation-induced long-lasting epileptiform discharges, slices showing them (brain slices; 10-Hz stimulation): 4 of 4
- field potential duration (at ⅓ maximal amplitude), 1st stimulus (brain slices; 10 Hz): 6.5 ± 0.7 ms
- field potential duration (at ⅓ maximal amplitude), 5th stimulus (brain slices; 10 Hz): 13.1 ± 2.6 ms
- stimulation-induced long-lasting epileptiform discharges, slices showing them (brain slices; 20 Hz stimulation): 3 of 4
- field potential duration (at ⅓ maximal amplitude), 1st stimulus (brain slices; 20 Hz): 6.6 ± 0.8 ms
- field potential duration (at ⅓ maximal amplitude), 5th stimulus (brain slices; 20 Hz): 12.9 ± 2.9 ms
- field potential amplitude, 1st stimulus (brain slices; [2]): 1.44±0.36 mV
- field potential amplitude, 5th stimulus (brain slices; [2]): 0.47±0.09 mV
